Laboratory results reported in patent publication US9101635B2 (priority 2009, dated 2015).
Read-outs that look alike come from different tables or passages of the source.

What was measured:
[1] = test system: HIV/EBOV-GP pseudotype virus; assay: microbe, parasite or virus in culture; assay type: cell-based, EBOV Zaire strain; details: Human immunodeficiency virus 1, HEK-293T; for inhibition at 25 µM: read-out: Inhibition of pseudotype virus at 25 μM in 293T cells (%) HIV/EBOV-GP
[2] = test system: HIV/VSV-G pseudotype virus; assay: microbe, parasite or virus in culture; assay type: cell-based, vesicular stomatitis virus; details: Human immunodeficiency virus 1, HEK-293T; read-out: Inhibition of pseudotype virus at 25 μM in 293T cells (%) HIV/VSV-GP
[3] = test system: recombinant Zaire EBOV expressing green fluorescent protein (GFP-ZEBOV); assay: microbe, parasite or virus in culture; assay type: cell-based, EBOV (Zaire subtype, 1995 strain); details: Zaire ebolavirus, Vero C1008, 48 h; for IC50: read-out: GFP-ZEBOV IC50 (μM); for IC90: read-out: GFP-ZEBOV IC90 (μM)
in vitro [4] = details: human
in vitro [5] = details: African green monkey, GFP-ZEBOV CC50 (μM)
[6] = test system: HIV/EBOV-GP pseudotype virus; assay: microbe, parasite or virus in culture; assay type: cell-based, EBOV Zaire strain; details: Human immunodeficiency virus 1, HEK-293T, read-out: inhibition of HIV/EBOV-GP infection, Assay 3: compounds pre-incubated with the virus for 1 hour at 37° C.
Vero E6 cells = details: African green monkey
EboZ replication = details: read-out: IC50, EboZ replication in vitro; cited from earlier work
[7] = test system: HIV/EBOV-GP pseudotype virus; assay type: cell-based, EBOV Zaire strain
[8] = test system: HIV/VSV-G pseudotype virus; assay type: cell-based, vesicular stomatitis virus
[9] = read-out: HIV/EBOV-Gp IC90 (μM)
[10] = read-out: IC90 (μM) against HIV/EBOV-GP

## CCCN(C)c1c([N+](=O)[O-])cc([N+](=O)[O-])c2cccnc12 [A, 5,7-dinitro-8-[methyl(propyl)amino]quinoline]
[1]; [9]
  IC90: 18.4 µM
[1]; [10]
  IC90: 18.4 µM
[1]
  inhibition at 25 µM: 98%
[2]
  inhibition at 25 µM: 25%
[3]
  IC50: 7.5 µM
  IC90: 10 µM
In vitro [4]
  CC50: 30 µM
In vitro [5]
  CC50: 15 µM

## COc1cccc(C(CC(=O)c2ccc(Cl)cc2)C(C#N)C#N)c1 (stereo not shown) [B]
[1]; [9]
  IC90: 7.6 µM
[1]; [10]
  IC90: 7.6 µM
[1]
  inhibition at 25 µM: 100%
[2]
  inhibition at 25 µM: 10%
[3]
  IC50: 10 µM
  IC90: 20 µM
[6]
  inhibition at 10 µM: > 75%
Vero E6 cells
  CC50: 51.5 µM
In vitro [4]
  CC50: 25 µM
In vitro [5]
  CC50: > 50 µM

## Nc1nccc2c1ncn2[C@@H]1C[C@H](CO)[C@@H](O)[C@H]1O [C-c3Ado, carbocyclic adenosine analog 3-deazaadenosinc]
EboZ replication
  IC50: 30 µM

## CCCNC(=O)[C@H]1O[C@@H]1C(=O)N[C@H](C(=O)N1CCC[C@H]1C(=O)O)[C@@H](C)CC [CA-074]
[7]
  inhibition of HIV/EBOV-GP infection: strongly inhibited
[8]
  inhibition of HIV/VSV-G infectivity: not

## CC[C@@]1(O)C(=O)OCc2c1cc1n(c2=O)Cc2cc3ccccc3nc2-1 [C]
[1]; [9]
  IC90: 0.8 µM
[1]; [10]
  IC90: 0.8 µM
[1]
  inhibition at 25 µM: 98%
[2]
  inhibition at 25 µM: 0%
[3]
  IC50: 10 µM
  IC90: 23.5 µM
[6]
  inhibition at 10 µM: > 75%
In vitro [4]
  CC50: 20 µM
In vitro [5]
  CC50: 29.5 µM

## CC1=CC(c2ccccc2)=Nc2cc3ccccc3cc2N1 [Compound G1]
[1]
  IC50: 88.3 µM

## Cc1cc2c(cc1C)N=C(C(F)(F)F)CC(c1ccc(Cl)cc1)=N2 [Compound G2]
[1]
  IC50: 72.1 µM

## FC(F)(F)C(F)(F)C1=Nc2ccccc2N=C(c2ccccc2)C1 [Compound G3]
[1]
  IC50: 70.9 µM

## FC(F)(F)C(F)(F)C1=Nc2cc(Cl)c(Cl)cc2N=C(c2ccccc2)C1 [Compound G4]
[1]
  IC50: 3.7 µM

## Oc1ccccc1C1=Nc2ccccc2N=C(C(F)(F)F)C1 [Compound G5]
[1]
  IC50: 70.7 µM

## Cc1ccc(C2=Nc3ccccc3N=C(C(F)(F)F)C2)cc1 [Compound G6]
[1]
  IC50: 75.7 µM

## COc1ccc(O)c(C2=Nc3ccccc3N=C(C(F)(F)F)C2)c1 [Compound G7]
[1]
  IC50: 85.7 µM
